Measured values: US12319672B2, “Alpha-D-galactopyranoside derivatives” (Idorsia Pharmaceuticals Ltd, priority 2019, dated 2025)
pIC50: −log10 of the molar value.

Experiments:
human Gal-3 (hGal-3) = human Gal-3 (hGal-3) (Homo sapiens (Human), UniProt P17931); test: Competitive binding assay: binding of biotinylated hGal-3 to microplate-adsorbed asialofetuin (ASF); conditions: Activity on hGal-3; mean values of several measurements
In short: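 Biotinylated hGal-3 (300-1000 ng/mL) bound to ASF-coated wells with serially diluted compound, 3 h at 4° C. After washing, bound protein was detected with streptavidin-peroxidase (80 ng/mL, 1 h, 4° C) and ABTS substrate; IC50 values are means of several measurements.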

human Gal-1 (hGal-1) = test: Competitive binding assay: binding of biotinylated hGal-1 to microplate-adsorbed asialofetuin (ASF); conditions: Activities on hGal-1; mean values of several measurements
Sequence of human Gal-1 (hGal-1) (P09382 2-135 limits assumed): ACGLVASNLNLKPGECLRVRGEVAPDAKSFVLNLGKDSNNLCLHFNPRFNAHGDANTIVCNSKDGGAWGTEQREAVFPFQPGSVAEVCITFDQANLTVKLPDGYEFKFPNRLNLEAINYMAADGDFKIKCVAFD
In short: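 Compounds diluted in DMSO competed with biotinylated hGal-3 or hGal-1 (300-1000 ng/mL) for binding to plate-adsorbed asialofetuin for 3 h at 4° C. Bound galectin was detected with streptavidin-peroxidase (80 ng/mL, 1 h, 4° C) and ABTS substrate; IC50 reported as mean of several measurements.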

Sequence of human Gal-3 (hGal-3) (P17931 whole entry): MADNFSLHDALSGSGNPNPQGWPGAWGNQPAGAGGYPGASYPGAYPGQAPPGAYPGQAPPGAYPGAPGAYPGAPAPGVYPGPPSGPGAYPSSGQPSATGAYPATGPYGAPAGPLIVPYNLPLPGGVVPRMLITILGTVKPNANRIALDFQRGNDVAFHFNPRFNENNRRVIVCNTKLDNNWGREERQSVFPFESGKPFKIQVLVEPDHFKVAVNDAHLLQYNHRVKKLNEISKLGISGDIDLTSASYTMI

pIC50 (human Gal-3 (hGal-3)) | pIC50 (human Gal-1 (hGal-1)) | SMILES
6.54 | 4.90 | OC[C@H]1O[C@H](Cc2cc(C3CCNCC3)on2)[C@H](O)[C@@H](n2cc(-c3cc(F)c(F)c(F)c3)nn2)[C@H]1O [Example 3.08, (2R,3R,4R,5R,6R)-2-(hydroxymethyl)-6-((5-(piperidin-4-yl)isoxazol-3-yl)methyl)-4-(4-(3,4,5-trifluorophenyl)-1H-1,2,3-triazol-1-yl)tetrahydro-2H-pyran-3,5-diol]
6.66 | 5.38 | CO[C@@H]1[C@@H](n2cc(-c3cc(F)c(F)c(F)c3)nn2)[C@@H](O)[C@@H](CO)O[C@@H]1Cc1cc(C2CCNCC2)sn1 [Example 6.03, (2R,3R,4S,5R,6R)-2-(hydroxymethyl)-5-methoxy-6-((5-(piperidin-4-yl)isothiazol-3-yl)methyl)-4-(4-(3,4,5-trifluorophenyl)-1H-1,2,3-triazol-1-yl)tetrahydro-2H-pyran-3-ol]
7.49 | 6.06 | CCNC(=O)N1CCC(c2cc(C[C@H]3O[C@H](CO)[C@H](O)[C@H](n4cc(-c5cc(F)c(F)c(F)c5)nn4)[C@H]3O)no2)CC1 [Example 3.27, 4-(3-(((2R,3R,4R,5R,6R)-3,5-dihydroxy-6-(hydroxymethyl)-4-(4-(3,4,5-trifluorophenyl)-1H-1,2,3-triazol-1-yl)tetrahydro-2H-pyran-2-yl)methyl)isoxazol-5-yl)-N-ethylpiperidine-1-carboxamide]
6.52 | 5.24 | OC[C@H]1O[C@H](CC2CC(C3CCNCC3)=NO2)[C@H](O)[C@@H](n2cc(-c3cc(F)c(F)c(F)c3)nn2)[C@H]1O (mixture of isomers) [Example 3.01, (2R,3R,4R,5R,6R)-2-(hydroxymethyl)-6-(((RS)-3-(piperidin-4-yl)-4,5-dihydroisoxazol-5-yl)methyl)-4-(4-(3,4,5-trifluorophenyl)-1H-1,2,3-triazol-1-yl)tetrahydro-2H-pyran-3,5-diol]
7.35 | 6.51 | CO[C@@H]1[C@@H](n2cc(-c3ccc(F)c(F)c3F)nn2)[C@@H](O)[C@@H](CO)O[C@@H]1Cc1cn(C(C)(C)C)nn1 [Example 4.46, (2R,3R,4S,5R,6R)-6-((1-(tert-butyl)-1H-1,2,3-triazol-4-yl)methyl)-2-(hydroxymethyl)-5-methoxy-4-(4-(2,3,4-trifluorophenyl)-1H-1,2,3-triazol-1-yl)tetrahydro-2H-pyran-3-ol]
7.14 | 6.07 | CCOC(=O)N1CCC(c2cc(C[C@H]3O[C@H](CO)[C@H](O)[C@H](n4cc(-c5cc(F)c(F)c(F)c5)nn4)[C@H]3OC)no2)CC1 [Example 3.31, ethyl 4-(3-(((2R,3R,4S,5R,6R)-5-hydroxy-6-(hydroxymethyl)-3-methoxy-4-(4-(3,4,5-trifluorophenyl)-1H-1,2,3-triazol-1-yl)tetrahydro-2H-pyran-2-yl)methyl)isoxazol-5-yl)piperidine-1-carboxylate]
6.64 | 5.53 | CO[C@@H]1[C@@H](n2cc(-c3cc(F)c(F)c(F)c3)nn2)[C@@H](O)[C@@H](CO)O[C@@H]1Cc1cc(C2CCN(CC(C)C)CC2)on1 [Example 3.41, (2R,3R,4S,5R,6R)-2-(hydroxymethyl)-6-((5-(1-isobutylpiperidin-4-yl)isoxazol-3-yl)methyl)-5-methoxy-4-(4-(3,4,5-trifluorophenyl)-1H-1,2,3-triazol-1-yl)tetrahydro-2H-pyran-3-ol]
6.60 | 5.54 | CO[C@@H]1[C@@H](n2cc(-c3cc(F)c(F)c(F)c3)nn2)[C@@H](O)[C@@H](CO)O[C@@H]1Cn1cc(C2CCCC2)nn1 [Example 4.48, (2R,3R,4S,5R,6R)-6-((4-cyclopentyl-1H-1,2,3-triazol-1-yl)methyl)-2-(hydroxymethyl)-5-methoxy-4-(4-(3,4,5-trifluorophenyl)-1H-1,2,3-triazol-1-yl)tetrahydro-2H-pyran-3-ol]
8.00 | 7.17 | CO[C@@H]1[C@@H](n2cc(-c3cc(F)c(F)c(F)c3)nn2)[C@@H](O)[C@@H](CO)O[C@@H]1Cc1cn(C2CCN(C(=O)NC(C)(C)C)CC2)nn1 [Example 4.08, N-(tert-butyl)-4-(4-(((2R,3R,4S,5R,6R)-5-hydroxy-6-(hydroxymethyl)-3-methoxy-4-(4-(3,4,5-trifluorophenyl)-1H-1,2,3-triazol-1-yl)tetrahydro-2H-pyran-2-yl)methyl)-1H-1,2,3-triazol-1-yl)piperidine-1-carboxamide]
7.24 | 6.28 | CO[C@@H]1[C@@H](n2cc(-c3cc(F)c(F)c(F)c3)nn2)[C@@H](O)[C@@H](CO)O[C@@H]1Cc1cc(C2CCN(C(=O)C3CCCC3)CC2)on1 [Example 3.49, cyclopentyl(4-(3-(((2R,3R,4S,5R,6R)-5-hydroxy-6-(hydroxymethyl)-3-methoxy-4-(4-(3,4,5-trifluorophenyl)-1H-1,2,3-triazol-1-yl)tetrahydro-2H-pyran-2-yl)methyl)isoxazol-5-yl)piperidin-1-yl)methanone]
6.60 | 5.09 | CO[C@@H]1[C@@H](n2cc(-c3cc(F)c(F)c(F)c3)nn2)[C@@H](O)[C@@H](CO)O[C@@H]1Cc1cn(-c2ccccc2)c(=O)o1 [Example 6.05, 5-(((2R,3R,4S,5R,6R)-5-hydroxy-6-(hydroxymethyl)-3-methoxy-4-(4-(3,4,5-trifluorophenyl)-1H-1,2,3-triazol-1-yl)tetrahydro-2H-pyran-2-yl)methyl)-3-phenyloxazol-2(3H)-one]

More lines, now with the values behind:

SMILES | pIC50 (human Gal-3 (hGal-3)) | pIC50 (human Gal-1 (hGal-1))
COc1ccc(-c2cn([C@H]3[C@@H](O)[C@@H](CO)O[C@H](Cc4cc(C(C)(C)C)on4)[C@@H]3OC)nn2)c(F)c1F [Ex 1.352] | 7.00 | 5.93
CO[C@@H]1[C@@H](n2cc(-c3ccc(C)c(F)c3F)nn2)[C@@H](O)[C@@H](CO)O[C@@H]1Cc1cc(C2(C#N)CCCC2)on1 [Ex 1.278] | 7.03 | 5.17
OC[C@H]1O[C@H](Cc2cc(C3CCC(O)CC3)on2)[C@H](O)[C@@H](n2cc(-c3cc(F)c(F)c(F)c3)nn2)[C@H]1O (stereo partly drawn) [Example 2.13, (2R,3R,4R,5R,6R)-2-((5-(4-hydroxycyclohexyl)isoxazol-3-yl)methyl)-6-(hydroxymethyl)-4-(4-(3,4,5-trifluorophenyl)-1H-1,2,3-triazol-1-yl)tetrahydro-2H-pyran-3,5-diol] | 6.68 | 5.70
CO[C@@H]1[C@@H](n2cc(-c3ccc(C)c(F)c3F)nn2)[C@@H](O)[C@@H](CO)O[C@@H]1Cc1cc(C2CCN(C(C)=O)CC2)on1 [Ex 1.168] | 7.54 | 6.03
CO[C@@H]1[C@@H](n2cc(-c3ccc(Cl)c(F)c3F)nn2)[C@@H](O)[C@@H](CO)O[C@@H]1CC1CC(C(C)(C)C)=NO1 (some centres unmarked) [Ex 1.266] | 7.04 | 5.81
CO[C@@H]1[C@@H](n2cc(-c3ccc(Cl)c(F)c3F)nn2)[C@@H](O)[C@@H](CO)O[C@@H]1Cc1cc(C2(O)CCCCC2)on1 [Ex 1.243] | 7.38 | 5.88
CO[C@@H]1[C@@H](n2cc(-c3cc(F)c(F)c(Cl)c3)nn2)[C@@H](O)[C@@H](CO)O[C@@H]1Cc1cc(C(C)(C)C)on1 [Ex 1.221] | 6.80 | 6.01
CCc1cc(C[C@H]2O[C@H](CO)[C@H](O)[C@H](n3cc(-c4cc(F)c(F)c(F)c4)nn3)[C@H]2OC)on1 [Ex 1.307] | 6.17 | 5.14
CO[C@@H]1[C@@H](n2cc(-c3ccc(Cl)c(F)c3)nn2)[C@@H](O)[C@@H](CO)O[C@@H]1Cc1cc(C2CCN(C(=O)OC(C)(C)C)CC2)no1 [Ex 1.124] | 7.51 | 6.10
CO[C@@H]1[C@@H](n2cc(-c3ccc(C)c(F)c3F)nn2)[C@@H](O)[C@@H](CO)O[C@@H]1Cc1cc(C(C)(O)c2ccccc2)on1 (some centres unmarked) [Ex 1.339] | 6.55 | 5.00
CO[C@@H]1[C@@H](n2cc(-c3cc(F)c(F)c(F)c3)nn2)[C@@H](O)[C@@H](CO)O[C@@H]1C[C@H]1CC(C2CCCCC2)=NO1 [Ex 1.09] | 5.67 | 4.56
CO[C@@H]1[C@@H](n2cc(-c3cc(F)cc(F)c3)nn2)[C@@H](O)[C@@H](CO)O[C@@H]1Cc1cc(C2CCN(C(=O)OC(C)(C)C)CC2)no1 [Ex 1.126] | 7.09 | 6.36
CO[C@@H]1[C@@H](n2cc(-c3cc(F)c(F)c(F)c3)nn2)[C@@H](O)[C@@H](CO)O[C@@H]1Cc1cc(-c2ccn(C)c(=O)c2)on1 [Ex 1.119] | 6.59 | 5.38
CCOC(=O)N1CCC(C)(c2cc(C[C@H]3O[C@H](CO)[C@H](O)[C@H](n4cc(-c5ccc(C)c(F)c5F)nn4)[C@H]3OC)on2)CC1 [Ex 1.325] | 7.77 | 6.22
CO[C@@H]1[C@@H](n2cc(-c3cc(F)c(C)c(F)c3)nn2)[C@@H](O)[C@@H](CO)O[C@@H]1Cc1cc(C(C)(C)C)on1 [Ex 1.188] | 6.74 | 5.12
CO[C@@H]1[C@@H](n2cc(-c3nc(Br)cs3)nn2)[C@@H](O)[C@@H](CO)O[C@@H]1CC1CC(C2CCN(C(=O)OC(C)(C)C)CC2)=NO1 (some centres unmarked) [Ex 1.311] | 5.62 | 7.19
CO[C@@H]1[C@@H](n2cc(-c3ccc(C)c(F)c3F)nn2)[C@@H](O)[C@@H](CO)O[C@@H]1Cc1cc(C(C)(C)C)no1 [Ex 1.254] | 7.51 | 5.95
CO[C@@H]1[C@@H](n2cc(-c3cc(F)c(F)c(F)c3)nn2)[C@@H](O)[C@@H](CO)O[C@@H]1Cc1cc(C2COC2)on1 [Ex 1.84] | 6.46 | 5.52
CO[C@@H]1[C@@H](n2cc(-c3ccc(C)c(F)c3F)nn2)[C@@H](O)[C@@H](CO)O[C@@H]1Cc1cc(C2(Oc3cncc(Br)c3)COC2)on1 [Ex 1.322] | 6.51 | < 4.00
OC[C@H]1O[C@H](CC2=NOC(C3CCCCC3)C2)[C@H](O)[C@@H](n2cc(-c3cc(F)c(F)c(F)c3)nn2)[C@H]1O (some centres unmarked) [Ex 1.35] | 6.00 | 5.25
